Measurements reported in US20120088665A1, “FUNGICIDAL MIXTURES” (BASF SE, priority 2009, published 2012).
Read-outs that look alike come from different tables or passages of the source.

Columns and labels:
Septoria tritici = assay: Activity against the Septoria leaf spot pathogen Septoria tritici in the microtiter test (Septtr); assay type: cell-based; details: single active compound; for inhibition of growth at 0.004 ppm: conc 0.004 ppm; for inhibition of growth at 0.016 ppm: conc 0.016 ppm; for inhibition of growth at 0.063 ppm: conc 0.063 ppm
Botrytis cinerea = assay: Activity against the gray mold pathogen Botrytis cinerea in the microtiter test (Botrci); assay type: cell-based; details: for inhibition of growth at 0.016 ppm / inhibition of growth at 0.063 ppm / inhibition of growth at 1 ppm / inhibition of growth at 4 ppm / inhibition of growth at 16 ppm / inhibition of growth at […]: Botrytis cinerea, 168 h, read-out: Observed activity; for inhibition of growth at 0.016 ppm: conc 0.016 ppm; for inhibition of growth at […]: conc 0.25 ppm
Pyricularia oryzae = assay: microbe, parasite or virus in culture; assay type: cell-based; details: for Observed activity: Pyrior, single active compound
Fusarium culmorum = assay: Activity against Fusarium culmorum in the microtiter test (Fusacu); assay type: cell-based; details: single active compound; for inhibition of growth at […] / inhibition of growth at 4 ppm / inhibition of growth at 16 ppm / inhibition of growth at 1 ppm / inhibition of growth at 0.063 ppm: Fusarium culmorum, 168 h, read-out: Observed activity; for inhibition of growth at […]: 0.25 ppm
Phytophthora infestans = assay: microbe, parasite or virus in culture; assay type: cell-based
[1] = Zymoseptoria tritici, 168 h, read-out: Observed activity
[2] = Zymoseptoria tritici, 168 h, conc 1 ppm, read-out: Observed activity
[3] = Zymoseptoria tritici, 168 h, conc 0.25 ppm, read-out: Observed activity
[4] = Pyricularia oryzae, 168 h, read-out: Observed activity
[5] = Phytophthora infestans, 168 h, read-out: Observed activity

“1-(4-chlorophenyl)-3-(5-mercapto-[1,2,4]triazol-1-ylmethyl)-4,4-dimethylpentan-3-ol [I-9]” showed an Observed activity (Septoria tritici; conc 1 ppm) of 20, an Observed activity (Septoria tritici; conc 4 ppm) of 64 and an Observed activity (Botrytis cinerea; conc 4 ppm) of 23%. The Observed activity (Pyricularia oryzae; conc 16 ppm) was 57, the Observed activity (Fusarium culmorum; 16 ppm) was 4% and the Observed activity (Phytophthora infestans; conc 16 ppm) was 52%.
With `Fc1ccc([C@]2(Cn3cncn3)O[C@H]2c2ccccc2Cl)cc1` (racemic) [epoxiconazole] the inhibition of growth at 0.004 ppm (Septoria tritici; [1]) was 4%, the inhibition of growth at 0.016 ppm (Septoria tritici; [1]) was 47% and the inhibition of growth at 0.016 ppm (Botrytis cinerea) was 7%. The inhibition of growth at 0.063 ppm (Botrytis cinerea; conc 0.063 ppm) was 25% and the inhibition of growth at […] (Fusarium culmorum) was 0%.
With `CCCCCCCCc1c(CC)nc2ncnn2c1N` [5-ethyl-6-octyl-[1,2,4]triazolo-[1,5-a]pyrimidin-7-ylamine] the inhibition of growth at 4 ppm (Fusarium culmorum; 4 ppm) was 2%.
`CCCCCCCCc1c(CC)nc2ncnn2c1N` [5-ethyl-6-octyl-[1,2,4]triazolo[1,5-a]pyrimidin-7-ylamine] gave an inhibition of growth at 1 ppm (Septoria tritici; [2]) of 0% and an inhibition of growth at 1 ppm (Botrytis cinerea; conc 1 ppm) of 6%.
Molecule `CC1(C)CCC(Cc2ccc(Cl)cc2)C1(O)Cn1ncnc1S` (stereo not drawn) [I-4, 5-(4-chlorobenzyl)-1-(5-mercapto-[1,2,4]triazol-1-ylmethyl)-2,2-dimethylcyclopentanol] has an inhibition of growth at […] (Septoria tritici; [3]) of 63%, an inhibition of growth at 1 ppm (Septoria tritici; [2]) of 68% and a melting point of 186 to 196 °C. It also gave an inhibition of growth at 1 ppm (Botrytis cinerea; conc 1 ppm) of 28%, an inhibition of growth at 4 ppm (Pyricularia oryzae; [4]) of 3% and an inhibition of growth at 16 ppm (Fusarium culmorum; 16 ppm) of 3%.
Work on `CC1COC(Cn2ncnc2S)(c2ccc(Oc3ccc(Cl)cc3)cc2Cl)O1` (stereo not drawn) [I-5, 2-{2-[2-chloro-4-(4-chlorophenoxy)phenyl]-4-methyl-[1,3]dioxolan-2-ylmethyl}-2H-[1,2,4]triazole-3-thiol] yielded a melting point of 73.4 °C, an inhibition of growth at 4 ppm (Botrytis cinerea; conc 4 ppm) of 36% and an inhibition of growth at 1 ppm (Phytophthora infestans; [5]) of 8%.
Molecule `CCCCC(C#N)(Cn1ncnc1S)c1ccc(Cl)cc1` (stereo not drawn) [I-10, 2-(4-chlorophenyl)-2-(5-mercapto-[1,2,4]triazol-1-ylmethyl)hexanenitrile] has an inhibition of growth at 1 ppm (Septoria tritici; [2]) of 2%, an inhibition of growth at 16 ppm (Pyricularia oryzae; [4]) of 8% and an inhibition of growth at 4 ppm (Phytophthora infestans; [5]) of 2%.
Work on `CCCC(Cn1ncnc1S)c1ccc(Cl)cc1Cl` (stereo not drawn) [I-16, 2-[2-(2,4-dichlorophenyl)pentyl]-2H-[1,2,4]triazole-3-thiol] yielded an inhibition of growth at 4 ppm (Botrytis cinerea; conc 4 ppm) of 31%, an inhibition of growth at 1 ppm (Pyricularia oryzae; [4]) of 1% and an inhibition of growth at 16 ppm (Fusarium culmorum; 16 ppm) of 6%. The inhibition of growth at 16 ppm (Phytophthora infestans; [5]) was 47%.
In the case of `CCCC1COC(Cn2ncnc2S)(c2ccc(Cl)cc2Cl)O1` (stereo not drawn) [I-17, 2-[2-(2,4-dichlorophenyl)-4-propyl-[1,3]dioxolan-2-ylmethyl]-2H-[1,2,4]triazole-3-thiol], the inhibition of growth at […] (Septoria tritici; [3]) is reported as 38%, the inhibition of growth at 4 ppm (Botrytis cinerea; conc 4 ppm) is reported as 33% and the inhibition of growth at 16 ppm (Fusarium culmorum; 16 ppm) is reported as 7%.
With `CC1(C)CC/C(=C\c2ccc(Cl)cc2)C1(O)Cn1ncnc1S` (stereo not drawn) [I-22, 5-[1-(4-chlorophenyl)meth-(E)-ylidene]-1-(5-mercapto-[1,2,4]triazol-1-ylmethyl)-2,2-dimethylcyclopentanol] the inhibition of growth at 16 ppm (Septoria tritici; Zymoseptoria tritici, 168 h, conc 16 ppm, read-out: Observed activity) was 22%, the melting point was 176.5 °C and the inhibition of growth at 16 ppm (Botrytis cinerea; conc 16 ppm) was 8%. It also gave an inhibition of growth at 1 ppm (Phytophthora infestans; [5]) of 6%.
Molecule `CC(C1CC1)C(O)(Cn1ncnc1S)c1ccc(Cl)cc1` (stereo not drawn) [I-23] has an Observed activity (Septoria tritici; conc 1 ppm) of 7, an Observed activity (Septoria tritici; conc 4 ppm) of 9 and an Observed activity (Botrytis cinerea; conc 16 ppm) of 26%.
For `O=C(Nc1ccccc1-c1ccc(Cl)cc1)c1cccnc1Cl` [II-24, boscalid], the inhibition of growth at […] (Septoria tritici; [3]) was 59%, the inhibition of growth at 4 ppm (Pyricularia oryzae; [4]) was 0% and the inhibition of growth at 4 ppm (Fusarium culmorum; 4 ppm) was 0%.
`Cn1cc(C(=O)Nc2ccccc2-c2cc(F)c(F)c(F)c2)c(C(F)F)n1` [N-(3′,4′,5′-trifluorobiphenyl-2-yl)-3-difluoromethyl-1-methyl-1H-pyrazole-4-carboxamide] showed an inhibition of growth at 0.004 ppm (Septoria tritici; [1]) of 4% and an inhibition of growth at 0.016 ppm (Botrytis cinerea) of 9%.
`N#Cc1c(Cl)c(Cl)c(Cl)c(C#N)c1Cl` [chlorothalonil] showed an inhibition of growth at 0.016 ppm (Septoria tritici; [1]) of 8%, an inhibition of growth at 0.016 ppm (Botrytis cinerea) of 2% and an inhibition of growth at 0.016 ppm (Pyricularia oryzae; [4]) of 0%.
`CC1CN(C2CCCCCCCCCCC2)CC(C)O1` (stereo not drawn) [dodemorph] gave an inhibition of growth at 0.063 ppm (Septoria tritici; [1]) of 0%, an inhibition of growth at […] (Septoria tritici; [3]) of 0% and an inhibition of growth at 4 ppm (Septoria tritici; Zymoseptoria tritici, 168 h, conc 4 ppm, read-out: Observed activity) of 23%. For the same molecule, the inhibition of growth at […] (Botrytis cinerea) was 7%, the inhibition of growth at 1 ppm (Botrytis cinerea; conc 1 ppm) was 9% and the inhibition of growth at 4 ppm (Botrytis cinerea; conc 4 ppm) was 33%. The inhibition of growth at 4 ppm (Pyricularia oryzae; [4]) was 1%.
For `CC(Cc1ccc(C(C)(C)C)cc1)CN1C[C@@H](C)O[C@@H](C)C1` (stereo partly drawn) [fenpropimorph], the inhibition of growth at 0.063 ppm (Septoria tritici; [1]) was 3%, the inhibition of growth at […] (Septoria tritici; [3]) was 2% and the inhibition of growth at 0.063 ppm (Botrytis cinerea; conc 0.063 ppm) was 16%. For the same molecule, the inhibition of growth at […] (Botrytis cinerea) was 26%, the inhibition of growth at 1 ppm (Pyricularia oryzae; [4]) was 14% and the inhibition of growth at 1 ppm (Fusarium culmorum) was 9%. It also gave an inhibition of growth at 0.063 ppm (Phytophthora infestans; [5]) of 4%.
Molecule `O=C(NCCc1ncc(C(F)(F)F)cc1Cl)c1ccccc1C(F)(F)F` [fluopyram] has an inhibition of growth at 0.016 ppm (Botrytis cinerea) of 0%, an inhibition of growth at 0.063 ppm (Botrytis cinerea; conc 0.063 ppm) of 0% and an inhibition of growth at […] (Fusarium culmorum) of 0%.
In the case of `O=c1c2cc(F)ccc2nc(-n2cncn2)n1-c1ccc(Cl)cc1Cl` [fluquinconazole], the inhibition of growth at 4 ppm (Fusarium culmorum; 4 ppm) is reported as 0%.
For `OC(Cn1cncn1)(c1ccc(F)cc1)c1ccccc1F` (stereo not drawn) [flutriafol], the inhibition of growth at […] (Septoria tritici; [3]) was 3%, the inhibition of growth at 4 ppm (Botrytis cinerea; conc 4 ppm) was 14% and the inhibition of growth at 16 ppm (Botrytis cinerea; conc 16 ppm) was 42%. For the same molecule, the inhibition of growth at 16 ppm (Fusarium culmorum; 16 ppm) was 29%.
With `CC(C)NC(=O)N1CC(=O)N(c2cc(Cl)cc(Cl)c2)C1=O` [iprodione] the inhibition of growth at 0.063 ppm (Septoria tritici; [1]) was 11%, the inhibition of growth at 1 ppm (Pyricularia oryzae; [4]) was 24% and the inhibition of growth at 1 ppm (Fusarium culmorum) was 3%.
Work on `CO/N=C(/C(=O)OC)c1ccccc1COc1ccccc1C` [kresoxim-methyl] yielded an inhibition of growth at […] (Botrytis cinerea) of 3%, an inhibition of growth at 1 ppm (Botrytis cinerea; conc 1 ppm) of 17% and an inhibition of growth at 1 ppm (Phytophthora infestans; [5]) of 47%.
Work on `COCC(=O)N(c1c(C)cccc1C)C(C)C(=O)OC` (stereo not drawn) [metalaxyl] yielded an inhibition of growth at 0.016 ppm (Septoria tritici; [1]) of 0%, an inhibition of growth at […] (Septoria tritici; [3]) of 0% and an inhibition of growth at […] (Botrytis cinerea) of 1%. It also gave an inhibition of growth at 1 ppm (Botrytis cinerea; conc 1 ppm) of 5%, an inhibition of growth at 1 ppm (Pyricularia oryzae; [4]) of 2% and an inhibition of growth at 1 ppm (Phytophthora infestans; [5]) of 5%.
In the case of `CC1(C)CCC(Cc2ccc(Cl)cc2)C1(O)Cn1cncn1` (stereo not drawn) [metconazole], the inhibition of growth at 0.004 ppm (Septoria tritici; [1]) is reported as 0%, the inhibition of growth at 0.016 ppm (Septoria tritici; [1]) is reported as 23% and the inhibition of growth at 0.063 ppm (Botrytis cinerea; conc 0.063 ppm) is reported as 31%. The inhibition of growth at 0.063 ppm (Fusarium culmorum) was 0% and the inhibition of growth at […] (Fusarium culmorum) was 37%.
Molecule `COc1cc(C)c(C(=O)c2c(OC)ccc(Br)c2C)c(OC)c1OC` [metrafenone] has an inhibition of growth at 1 ppm (Botrytis cinerea; conc 1 ppm) of 0% and an inhibition of growth at 1 ppm (Pyricularia oryzae; [4]) of 11%.
`CNC(=O)/C(=N/OC)c1ccccc1CO/N=C(C)/C(=N/OC)C(/C)=N/OC` [orysastrobin] showed an Observed activity (Botrytis cinerea; conc 0.063 ppm) of 1%.
With `OC(Cc1ccccc1Cl)(Cn1nc[nH]c1=S)C1(Cl)CC1` (stereo not drawn) [prothioconazole] the inhibition of growth at 0.004 ppm (Septoria tritici; [1]) was 0%, the inhibition of growth at 0.016 ppm (Botrytis cinerea) was 5% and the inhibition of growth at 0.063 ppm (Botrytis cinerea; conc 0.063 ppm) was 17%. For the same molecule, the inhibition of growth at […] (Fusarium culmorum) was 0%.
In the case of `COC(=O)N(OC)c1ccccc1COc1ccn(-c2ccc(Cl)cc2)n1` [pyraclostrobin], the inhibition of growth at […] (Septoria tritici; Zymoseptoria tritici, 168 h, conc 0.00025 ppm, read-out: Observed activity) is reported as 5%, the inhibition of growth at 0.004 ppm (Septoria tritici; [1]) is reported as 44% and the inhibition of growth at 0.016 ppm (Septoria tritici; [1]) is reported as 75%. It also gave an inhibition of growth at 0.004 ppm (Pyricularia oryzae; [4]) of 25%, an inhibition of growth at 0.016 ppm (Pyricularia oryzae; [4]) of 54% and an inhibition of growth at 0.063 ppm (Fusarium culmorum) of 0%. It also gave an inhibition of growth at 0.016 ppm (Phytophthora infestans; [5]) of 13% and an inhibition of growth at 0.063 ppm (Phytophthora infestans; [5]) of 26%.
With `Cc1cc(C)nc(Nc2ccccc2)n1` [pyrimethanil] the inhibition of growth at 1 ppm (Septoria tritici; [2]) was 0%, the inhibition of growth at 0.063 ppm (Botrytis cinerea; conc 0.063 ppm) was 7% and the inhibition of growth at 4 ppm (Fusarium culmorum; 4 ppm) was 3%.
In the case of `CC(C)(C)C(O)(CCc1ccc(Cl)cc1)Cn1cncn1` (stereo not drawn) [tebuconazole], the inhibition of growth at 0.004 ppm (Pyricularia oryzae; [4]) is reported as 4% and the inhibition of growth at 0.063 ppm (Phytophthora infestans; [5]) is reported as 3%.
In the case of `COC(=O)NC(=S)Nc1ccccc1NC(=S)NC(=O)OC` [thiophanate-methyl, thiophanate methyl], the inhibition of growth at 1 ppm (Pyricularia oryzae; [4]) is reported as 4% and the inhibition of growth at 1 ppm (Phytophthora infestans; [5]) is reported as 7%.
For `CC1(C)CCC(=Cc2ccc(Cl)cc2)C1(O)Cn1cncn1` (stereo not drawn) [triticonazole], the inhibition of growth at 0.063 ppm (Septoria tritici; [1]) was 13%, the inhibition of growth at […] (Botrytis cinerea) was 29% and the inhibition of growth at 1 ppm (Fusarium culmorum) was 17%.
Molecule mancozeb has an Observed activity (Septoria tritici; conc 4 ppm) of 23, an Observed activity (Botrytis cinerea; conc 1 ppm) of 8% and an Observed activity (Pyricularia oryzae; conc 4 ppm) of 67. The Observed activity (Fusarium culmorum; 4 ppm) was 0% and the Observed activity (Phytophthora infestans; conc 1 ppm) was 23%.
In the case of metiram, the Observed activity (Septoria tritici; conc 1 ppm) is reported as 17, the Observed activity (Pyricularia oryzae; conc 1 ppm) is reported as 6 and the Observed activity (Pyricularia oryzae; conc 16 ppm) is reported as 36.
